Test results from US20260364027A1, “ENHANCER OF CARDIOLIPIN MOLECULAR SPECIES AS MITOCHONDRIAL COMPONENT” (WATANABE OYSTER LABORATORY, CO., LTD., priority 2022, published 2026).

How the values were obtained:
[1] = test system: human renal proximal tubule cells (HK-2); assay: Cardiolipin measurement by LC-MS/MS in HK-2 cells under oxidative stress stimulation (molecular species, total content, acyl groups); assay type: cell-based; settings: oxidative stress (100 μM BSO) + DHMBA 250 or 500 μM
Method: FIG. 2 is an explanatory drawing for describing increase effects of DHMBA on CL molecular species under oxidative stress conditions. HK-2 cells were cultured with 100 μM BSO and 250 or 500 μM DHMBA, and then recovered and CL was measured using LC-MS/MS. Mean±SD (n=4).
FIG. 3 is an explanatory drawing for describing increase effects of DHMBA on total CL content under oxidative stress conditions. HK-2 cells were cultured with 100 μM BSO and 250 or 500 μM DHMBA, and then recovered and CL was measured using LC-MS/MS. Mean±SD (n=4).
FIG. 4 is an explanatory drawing for describing CL acyl group modification due to addition of DHMBA under oxidative stress conditions. HK-2 cells were cultured with 100 μM BSO and 250 or 500 μM DHMBA, and then recovered and CL was measured using LC-MS/MS. Mean±SD (n=4).
Human renal proximal tubule cells (HK-2) were subcultured in Dulbecco's Modified Eagle's Medium (DMEM, Nacalai Tesque) containing 10% fetal bovine serum and 1% penicillin-streptomycin at 37 °C in a 5% CO2 incubator. The following experiments were conducted using the oxidative stress inducer to confirm the cardiolipin increase effect of DHMBA on the oxidative stress.
HK-2 cells were seeded in a 6-well plate at a density of 1.0×10^5 cells/well and cultured for 24 hours. The cells were then divided into four groups with different stimulus conditions, and 2 mL thereof was added to each well.
The above-described four groups with the different stimulus conditions are as follows.
Control group (culture medium); oxidative stress group (final concentration 100 μM Oxidative Stress); oxidative stress+DHMBA 250 group (final concentration 100 μM Oxidative Stress+final concentration 250 μM DHMBA); and oxidative stress+DHMBA 500 group (final concentration 100 μM Oxidative Stress+final concentration 500 μM DHMBA).
After 24 hours, the cells were washed twice with phosphate-buffered saline (hereinafter referred to as PBS), and then 1 mL of PBS was added to each well and the cells were recovered using a scraper. In this cell suspension, 100 μL was used for protein quantification by a bicinchoninic acid (BCA) method. The protein concentration was used for correction of the cardiolipin concentration. The remaining cell suspension was centrifuged at 1,200 rpm for 5 minutes, the supernatant was removed, and then the precipitated cells were stored at −80 °C.
For the cardiolipin measurement, the total intracellular lipids were extracted in the same way as in the previous reports (Chen Z, et al. Metabolomics, 16: 115, 2020). […]
(§1) The data obtained were expressed as mean±standard deviation (SD), and statistical analysis was performed using JMP Pro 16 (SAS Institute Inc.). […]

[2] = background; compared with existing antioxidants; cited from earlier work
Keap1-Nrf2 pathway = settings: background, to date; cited from earlier work
PNPLA8 = assay: qPCR expression of CL remodeling/degradation-related gene PNPLA8 in HK-2 cells under oxidative stress; assay type: cell-based, human; settings: oxidative stress (100 μM BSO) + DHMBA 250 or 500 μM, 24 h, HK-2, β-actin corrected, control = 1
Method: (§2) FIG. 6 is an explanatory drawing for describing changes in the expression levels of genes related to CL remodeling and degradation of DHMBA under oxidative stress conditions. HK-2 cells were cultured with 100 μM BSO and 250 or 500 μM DHMBA, and then the expression levels of genes related to […] were measured by qPCR. Mean±SD (n=4).
(§3) Therefore, in the present invention, the analysis of the expression levels of genes related to cardiolipin biosynthesis, remodeling, and degradation in response to oxidative stress stimulation was verified.
(§4) HK-2 cells were seeded in a 6-well plate at a density of 5.0×10^4 cells/well and cultured for 24 hours.
(§5) Next, under the same stimulus conditions as described above, 2 mL thereof was added to each well. […] The concentration of the purified RNA was quantified by Nanodrop (Invitrogen). […]
(§6) The gene expression levels were measured according to a protocol for THUNDERBIRD (registered trademark) SYBR (registered trademark) qPCR Mix (TOYOBO). Measurements were performed using a CFX Connect™ real-time PCR analysis system (BioRad), and analyzed using a 2^−(ΔΔCT) method.
(§7) The gene expression level of the control group was set at 1 for comparison. The figures are expressed as mean±SD (n=4 for each group). […]
as §1

HADHB = assay: qPCR expression of CL remodeling/degradation-related gene HADHB in HK-2 cells under oxidative stress; assay type: cell-based, human; settings: oxidative stress (100 μM BSO) + DHMBA 250 or 500 μM, 24 h, HK-2, β-actin corrected, control = 1
Method: as §2, §3, §4, §5, §6, §7, §1

[3] = test system: antioxidant gene groups (such as HO-1 and NQO1); settings: background, to date; cited from earlier work
CDS2 = assay: qPCR expression of CL biosynthesis-related gene CDS2 in HK-2 cells under oxidative stress; assay type: cell-based, human; settings: oxidative stress (100 μM BSO) + DHMBA 250 or 500 μM, 24 h, HK-2, β-actin corrected, control = 1
Method: FIG. 5 is an explanatory drawing for describing changes in expression level of CL biosynthesis-related genes of DHMBA under oxidative stress conditions. HK-2 cells were cultured with 100 μM BSO and 250 or 500 μM DHMBA, and then the expression levels of CL biosynthesis-related genes were measured by qPCR. Mean±SD (n=4).
as §3, §4, §5, §6, §7, §1

mitochondria = settings: under oxidative stress conditions; results so far; cited from earlier work
[4] = background, to date; cited from earlier work

COc1c(O)cc(CO)cc1O [DHMBA, 3,5-dihydroxy-4-methoxy benzyl alcohol]
Change in cardiolipin molecular species ([1]; 24 h, HK-2, n=4, vs control group): almost all the cardiolipin molecular species increased significantly
Change in saturated fatty acid chain FA16:0 of cardiolipin ([1]; HK-2, n=4): decreased
Change in unsaturated fatty acid chain FA18:1 of cardiolipin ([1]; HK-2, n=4): increased
Change in unsaturated fatty acid chain FA18:2 of cardiolipin ([1]; HK-2, n=4): increased
Cytotoxicity [2]: lower cytotoxicity than existing antioxidants
Activation of the Keap1-Nrf2 pathway (Keap1-Nrf2 pathway): confirmed
PNPLA8 gene expression level (PNPLA8): decreased to the same level as the control group
HADHB gene expression level (HADHB): increased
Induction of the expression of antioxidant gene groups (such as HO-1 and NQO1) [3]: confirmed
CDS2 gene expression level (CDS2): decreased to the same level as the control group
Protective effect on mitochondria (mitochondria): protective effect on mitochondria under oxidative stress conditions
Radical scavenging ability [4]: confirmed
